Experimental findings from patent publication US20230330112A1, “COMPOSITION AND TREATMENT FOR CANCER WITH MUTATIONS” (BRIDGE BIOTHERAPEUTICS, INC., priority 2022, published 2023) are described below.

The test system of assay [1] is Ba/F3 EGFR 19Del/C797S xenograft. Description: Ba/F3 EGFR 19Del/C797S xenograft study. As to conditions: even at 25 mg/kg. In kind it is in vivo, mouse. The method, then:
(§1) For Ba/F3 EGFR 19Del/C797S and EGFR 19Del/T790M/C797S xenografts models, each mouse was inoculated subcutaneously at the right flank with cells (0.5×10^6) in 0.1 mL of PBS supplemented with BD Matrigel (1:1) for tumor development. The animals were randomized, and treatment was started when the average tumor volume reached 150-180 mm^3 for the efficacy study.
(§2) Tumor volumes were measured twice weekly in two dimensions using a caliper, and the volume was expressed in mm^3 using the formula: volume=0.5 a×b^2 where a and b are the long and short diameters of the tumor, respectively. The tumor sizes were then used for the calculations of T/C (treatment/control) values. The tumor volume was used for calculation of tumor growth index (TGI) of each group according to the following formula: TGI (%)=[1-(Tti-Tt0)/(Vci-Vc0)]×100. The bodyweight of mice was measured daily for the dosing phase, and the relative change of bodyweight (RCBW) of each mouse according to the following formula: […]

Assay [2] relates to Ba/F3 EGFR 19Del/T790M/C797S xenografts. Description: Ba/F3 EGFR 19Del/T790M/C797S xenograft study. The format is in vivo, mouse. Particulars: even at 25 mg/kg. The method, then: as §1, §2

For the compound `C=CC(=O)Nc1cc(Nc2nccc(-c3cn(C)c4ccccc34)n2)c(OC)cc1N(C)CCN(C)C` [osimertinib, reference compound], the tumor growth entry in assay [1] and in assay [2] was “did not block the tumor growth” in each case.
